Molecular target: HIV-1 RT (reverse transcriptase)
Assay: Inhibitory concentration against HIV-1 RT was determined

IC50: 115 nM
Compound: O=C(C[C@H]1C(=O)Nc2ccccc2-c2cccn21)OCc1ccccc1
